The values that follow come from patent US9499495B2, “Quinazolines and azaquinazolines as dual inhibitors of RAS/RAF/MEK/ERK and PI3K/AKT/PTEN/mTOR pathways” (Asana Biosciences, LLC, priority 2013, dated 2016).

One assay deals with T1, B-RAFV600E (Homo sapiens, UniProt P15056, V600E).
T1 construct: purchased Millipore, USA 14-557
Nature of the assay: B-RAFV600E radiometric assay. It counts as biochemical. Particulars: read-out: Kinase assay B-Raf. How it is done: Compound inhibition for B-RAFV600E was determined through radiometric assay using a BRAF enzyme (Catalog No. 14-557, Millipore, USA) and MEK-K97M protein as a substrate (Catalog No. 0785-0000-1, ProqQinase GmbH, Germany). The B-RAF kinase catalyzes the phosphorylation of MEK protein in the presence of gamma ATP (PLC-101, Jonaki, CCMB, Hyderabad), cold ATP and Mg^2+.
The phosphorylated protein product is detected by the scintillation counter Topcount® machine (Perkin Elmer). This assay has been adapted from the method previously reported by Yeh et al. (2007, Clinical Cancer Research; 13, 1576-1583). The assay measures the B-RAF mediated transfer of 32P from the gamma position of radiolabeled ATP onto MEK1-KD. The labeled phosphorylated protein was measured in MicroBeta® Trilux Counter (Perkin Elmer). The assay was validated with reference compounds RAF1 Kinase Inhibitor I and ZM 336372 inhibitor which are reported to be inhibitors of B-RAF enzyme (Lackey, 2000, Medicinal Chemistry Letters; 10(3):223-226; Kupcho, “Fluorescent High throughput kinase cascade assays for inhibitor characterization, RAF-MEK-ERK pathway, www.invitrogen.com, and Hall-Jackson, 1999, Chemical Biology; 6(8):559-568). B-RAF enzyme mixture (13 μL) was added to compound wells containing 2 μL of the NCE in 1% DMSO and incubated for 45 min at rt on a shaking incubator at 300 rpm. MEK-K97M (0.5 μg) and cold ATP to a final concentration of 5 μM, and hot ATP 0.1 μCi in a volume of 10 μL was added to each well and incubated for 2 h at rt on a shaking incubator at 300 rpm. The reaction was stopped by addition of […] (13 μL) containing ATP (1 mM: 495 μL 1N HCl and 5 μL 100 mM ATP). Aliquot (30 μL) was then transferred to the center of a 2 cm×2 cm P81 paper. P81 paper was washed 8×5 min each with ortho-phosphoric acid (0.5%). P81 papers are washed twice with acetone for […] Assay squares were allowed to dry for […] at 37° C. P81 paper are transferred to Optiplate™ (Perkin Elmer) and counted in a Topcount® counter (Perkin Elmer). Data was plotted against the compound concentration to generate dose-response curves and IC50 values were determined using a sigmoidal dose response curve fit GraphPad Prism® v5 software.

Another assay concerns the target T2, mTOR kinase (Homo sapiens, UniProt P42345).
T2 construct: purchased Millipore, US
Nature of the assay: mTOR kinase TR-FRET assay. It counts as biochemical. As to the method:
Compound inhibition for mTOR kinase was determined by homogeneous TR-FRET assay using ULight-p70 S6K (Thr 389) peptide as substrate. mTOR enzyme (Millipore, US; […]) was used in the assay. The reaction buffer was HEPES (50 mM, pH 7.5), EGTA (1 mM), and MnCl2 (3 mM). Test compound was pre-incubated with mTOR for 30 min followed by 50 nM ULight-p70 S6K (Thr 389) peptide along with ATP (20 μM).
After incubating the reaction mixture for 30 min, Eu-labeled anti-phospho-substrate antibody (1 nM, Perkin Elmer, USA) was added. Fluorescence emission at […] was measured upon excitation at 340 nm. The compound dilution was carried out in 100% DMSO followed by a buffer dilution. The kinase reaction was incubated for 1 h at rt followed by the addition of substrate-ATP mix and incubated at rt for 1 h. The reaction was terminated by the addition of EDTA followed by the addition of detection mix. IC50 values were determined using a sigmoidal dose response curve fit, GraphPad Prism® v5 software.
On the technique in general: TR-FRET usually uses a lanthanide donor and a delayed reading to cut background.

T2 sequence (P42345 1362-2549 limits assumed): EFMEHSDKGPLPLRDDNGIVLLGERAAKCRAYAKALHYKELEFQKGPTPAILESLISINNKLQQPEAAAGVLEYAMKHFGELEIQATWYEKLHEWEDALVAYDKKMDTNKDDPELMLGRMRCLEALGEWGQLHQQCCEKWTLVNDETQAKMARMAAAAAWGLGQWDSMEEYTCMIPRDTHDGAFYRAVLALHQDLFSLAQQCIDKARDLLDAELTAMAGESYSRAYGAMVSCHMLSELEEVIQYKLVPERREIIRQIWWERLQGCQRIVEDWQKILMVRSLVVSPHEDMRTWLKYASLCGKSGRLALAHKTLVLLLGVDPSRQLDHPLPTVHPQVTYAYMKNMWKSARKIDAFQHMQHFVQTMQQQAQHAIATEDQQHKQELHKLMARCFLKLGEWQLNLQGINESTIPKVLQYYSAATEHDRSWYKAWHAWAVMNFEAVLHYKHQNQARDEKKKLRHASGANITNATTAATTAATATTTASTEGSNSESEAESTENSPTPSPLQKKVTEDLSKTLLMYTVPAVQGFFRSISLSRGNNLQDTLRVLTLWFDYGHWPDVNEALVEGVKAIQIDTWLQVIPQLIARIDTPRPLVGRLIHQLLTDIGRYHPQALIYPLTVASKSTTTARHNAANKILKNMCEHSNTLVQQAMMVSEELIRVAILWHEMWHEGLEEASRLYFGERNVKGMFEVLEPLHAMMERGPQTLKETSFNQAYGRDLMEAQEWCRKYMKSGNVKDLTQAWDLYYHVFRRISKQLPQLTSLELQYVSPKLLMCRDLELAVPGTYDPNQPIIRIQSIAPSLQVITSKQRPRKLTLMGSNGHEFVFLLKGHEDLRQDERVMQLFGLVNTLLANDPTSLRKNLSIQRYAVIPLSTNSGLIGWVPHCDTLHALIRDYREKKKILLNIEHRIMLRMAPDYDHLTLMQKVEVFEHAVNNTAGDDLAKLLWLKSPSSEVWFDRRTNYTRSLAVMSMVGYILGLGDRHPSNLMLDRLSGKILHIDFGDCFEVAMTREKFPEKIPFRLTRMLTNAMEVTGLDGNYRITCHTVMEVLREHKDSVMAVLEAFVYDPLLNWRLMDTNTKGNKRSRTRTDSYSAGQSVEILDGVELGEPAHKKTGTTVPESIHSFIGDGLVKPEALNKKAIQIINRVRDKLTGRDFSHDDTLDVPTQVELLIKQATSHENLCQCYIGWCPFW
T1 sequence (P15056 416-766 V600E limits assumed): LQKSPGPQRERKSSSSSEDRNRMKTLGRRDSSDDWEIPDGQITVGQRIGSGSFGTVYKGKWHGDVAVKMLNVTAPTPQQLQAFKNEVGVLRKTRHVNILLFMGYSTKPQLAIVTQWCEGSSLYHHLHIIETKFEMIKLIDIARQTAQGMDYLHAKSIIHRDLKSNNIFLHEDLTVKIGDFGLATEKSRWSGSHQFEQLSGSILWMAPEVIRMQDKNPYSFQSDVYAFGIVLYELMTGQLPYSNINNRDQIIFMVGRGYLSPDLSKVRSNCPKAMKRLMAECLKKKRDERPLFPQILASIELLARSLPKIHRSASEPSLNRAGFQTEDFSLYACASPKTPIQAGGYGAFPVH

Consider `CCCS(=O)(=O)Nc1cccc(-c2cc(OCCO)c3nc(-c4ccc(N)nc4)nc(N4CCOCC4)c3c2)c1F` [Example 4, N-(3-(2-(6-aminopyridin-3-yl)-8-(2-hydroxyethoxy)-4-morpholinoquinazolin-6-yl)-2-fluorophenyl)propane-1-sulfonamide], for which the IC50 on B-RAFV600E and against mTOR kinase was 100 to 1000 nM in each case.
On to `CCCS(=O)(=O)Nc1cccc(-c2cc(OC)c3nc(-n4c(CO)nc5ccccc54)nc(N4CCOCC4)c3c2)c1F` [Example 10, N-(2-fluoro-3-(2-(2-(hydroxymethyl)-1H-benzo[d]imidazol-1-yl)-8-methoxy-4-morpholinoquinazolin-6-yl)phenyl)propane-1-sulfonamide], for which the IC50 on B-RAFV600E and against mTOR kinase was 100 to 1000 nM throughout.
For `CCCCS(=O)(=O)Nc1cccc(-c2cc(OC)c3nc(-c4cnc(N)nc4)nc(N4CCOCC4)c3c2)c1F` [Example 23, N-(3-(2-(2-aminopyrimidin-5-yl)-8-methoxy-4-morpholinoquinazolin-6-yl)-2-fluorophenyl)butane-1-sulfonamide], the IC50 at B-RAFV600E and against mTOR kinase was 100 to 1000 nM in each case.
With `COc1cc(-c2cccc(NS(=O)(=O)c3ccc(F)cc3F)c2F)cc2c(N3CCOCC3)nc(-c3cnc(N)nc3)nc12` [Example 24, N-(3-(2-(2-aminopyrimidin-5-yl)-8-methoxy-4-morpholinoquinazolin-6-yl)-2-fluorophenyl)-2,4-difluorobenzenesulfonamide], the IC50 at B-RAFV600E and on mTOR kinase was 100 to 1000 nM each time.
With `COc1cc(-c2cccc(NS(=O)(=O)CCC(F)(F)F)c2F)cc2c(N3CCOCC3)nc(-c3ccc(N)nc3)nc12` [Example 31, N-(3-(2-(6-aminopyridin-3-yl)-8-methoxy-4-morpholinoquinazolin-6-yl)-2-fluorophenyl)-3,3,3-trifluoropropane-1-sulfonamide], the IC50 on B-RAFV600E and at mTOR kinase was 100 to 1000 nM in each case.
On to `CCCS(=O)(=O)Nc1cccc(-c2cc(OC)c3nc(-c4ccc(NC(=O)Nc5ccncc5)cc4)nc(N4CCOCC4)c3c2)c1F` [Example 34, N-(2-fluoro-3-(8-methoxy-4-morpholino-2-(4-(3-(pyridin-4-yl)ureido)phenyl)quinazolin-6-yl)phenyl) propane-1-sulfonamide], for which the IC50 at B-RAFV600E fell in the range of 100 to 1000 nM; against mTOR kinase, 1 to 100 nM.
For the compound `COc1cc(-c2cccc(NS(=O)(=O)CCCF)c2F)cc2c(N3CCOCC3)nc(-c3cnc(N)nc3C)nc12` [Example 35, N-(3-(2-(2-amino-4-methylpyrimidin-5-yl)-8-methoxy-4-morpholinoquinazolin-6-yl)-2-fluorophenyl)-3-fluoropropane-1-sulfonamide], the IC50 is 1 to 100 nM on B-RAFV600E and 100 to 1000 nM against mTOR kinase.
Taken in the same sequence, the figures for `COc1cc(-c2cccc(NS(=O)(=O)CCCF)c2F)cc2c(N3CCOC[C@H]3C)nc(-c3cnc4[nH]ccc4c3)nc12` [Example 44, (R)-3-fluoro-N-(2-fluoro-3-(8-methoxy-4-(3-methylmorpholino)-2-(1H-pyrrolo[2,3-b]pyridin-5-yl)quinazolin-6-yl)phenyl)propane-1-sulfonamide] were 100 to 1000 nM and 100 to 1000 nM.
Taken in the same sequence, the figures for `CCCNc1ccc(-c2nc(N3CCOCC3)c3cc(-c4cccc(NS(=O)(=O)CCCF)c4F)cc(OC)c3n2)cn1` [Example 49, 3-fluoro-N-(2-fluoro-3-(8-methoxy-4-morpholino-2-(6-(propylamino)pyridin-3-yl)quinazolin-6-yl)phenyl)propane-1-sulfonamide] were 1 to 100 nM and 100 to 1000 nM.
For `Nc1ccc(-c2nc(N3CCOCC3)c3cc(-c4cccc(NS(=O)(=O)CCCF)c4F)cc(OCC(=O)O)c3n2)cn1` [Example 59, 2-((2-(6-aminopyridin-3-yl)-6-(2-fluoro-3-(3-fluoropropylsulfonamido)phenyl)-4-morpholino-quinazolin-8-yl)oxy)acetic acid 2,2,2-trifluoroacetate], in that order: 100 to 1000 nM and 1 to 100 nM.
Turning to `CCOc1cc(-c2cccc(NS(=O)(=O)CCCF)c2F)cc2c(N3CCOC[C@H]3C)nc(-c3cnc4[nH]ccc4c3)nc12` [Example 61, (R)-N-(3-(8-ethoxy-4-(3-methylmorphollno)-2-(1H-pyrrolo[2,3-b]pyridin-5-yl)quinazolin-6-yl)-2-fluorophenyl)-3-fluoropropane-1-sulfonamide], the IC50 lay within 1 to 100 nM on B-RAFV600E and 100 to 1000 nM against mTOR kinase.
On to `CCOc1cc(-c2cccc(NS(=O)(=O)CCCF)c2F)cc2c(N3CCOC[C@@H]3C)nc(-c3cnc(N)nc3)nc12` [Example 66], for which the values for the IC50 at B-RAFV600E and on mTOR kinase were 1 to 100 nM and 100 to 1000 nM, respectively.
Turning to `C[C@@H]1COCCN1c1nc(-c2ccc(N)nc2)nc2c(N3CCOCC3)cc(-c3cccc(NS(=O)(=O)CCCF)c3F)cc12` [Example 72, (R)-N-(3-(2-(6-aminopyridin-3-yl)-4-(3-methylmorpholino)-8-morpholinoquinazolin-6-yl)-2-fluorophenyl)-3-fluoropropane-1-sulfonamide], the IC50 at B-RAFV600E and against mTOR kinase was 1 to 100 nM in each case.
For the compound `C[C@@H]1COCCN1c1nc(-c2ccc(N)nc2)nc2c(N3CCCC3)cc(-c3cccc(NS(=O)(=O)CCCF)c3F)cc12` [Example 74, (R)-N-(3-(2-(6-aminopyridin-3-yl)-4-(3-methylmorpholino)-8-(pyrrolidin-1-yl)quinazolin-6-yl)-2-fluorophenyl)-3-fluoropropane-1-sulfonamide], the values for the IC50 on B-RAFV600E and on mTOR kinase were 1 to 100 nM and 100 to 1000 nM, respectively.
In the case of `COc1cc(-c2c(F)ccc(NS(=O)(=O)CCCF)c2F)cc2c(N3CCOCC3)nc(-c3cnc4[nH]ccc4c3)nc12` [Example 83], the IC50 on B-RAFV600E fell in the range of 1 to 100 nM; on mTOR kinase, 100 to 1000 nM.
For `COc1cc(-c2c(Cl)ccc(NS(=O)(=O)CCCF)c2F)cc2c(N3CCOCC3)nc(-c3ccc(N)nc3)nc12` [Example 85, N-(3-(2-(6-aminopyridin-3-yl)-8-methoxy-4-morpholinoquinazolin-6-yl)-4-chloro-2-fluorophenyl)-3-fluoropropane-1-sulfonamide], in that order: 1 to 100 nM and 100 to 1000 nM.
In the case of `CCc1cc(-c2cccc(NS(=O)(=O)CCCF)c2F)cc2c(N3CCOC[C@H]3C)nc(-c3cnc(N)nc3)nc12` [Example 119, (R)-N-(3-(2-(2-aminopyrimidin-5-yl)-8-ethyl-4-(3-methylmorpholino)quinazolin-6-yl)-2-fluorophenyl)-3-fluoropropane-1-sulfonamide], the IC50 is 1 to 100 nM on B-RAFV600E and 100 to 1000 nM against mTOR kinase.
For `COc1cc(-c2cccc(NS(=O)(=O)CCCF)c2F)cc2c(N3CCOCC3)nc(-c3ccc(NC(C)=O)nc3)nc12` [Example 124, N-(5-(6-(2-fluoro-3-(3-fluoropropylsulfonamido)phenyl)-8-methoxy-4-morpholinoquinazolin-2-yl)pyridin-2-yl)acetamide], in that order: 1 to 100 nM and 100 to 1000 nM.
Taken in the same sequence, the figures for `COc1cc(-c2cccc(NS(=O)(=O)CCCF)c2F)cc2c(N3CCOCC3)nc(-c3ccc(NS(C)(=O)=O)cc3)nc12` [Example 126, 3-f1uoro-N-(2-fluoro-3-(8-methoxy-2-(4-(methylsulfonamido)phenyl)-4-morpholinoquinazolin-6-yl)phenyl)propane-1-sulfonamide] were 100 to 1000 nM and 100 to 1000 nM.
As to `COCCNc1ccc(-c2nc(N3CCOCC3)c3nc(-c4cccc(NS(=O)(=O)CCCF)c4F)ccc3n2)cn1` [Example 133, 3-fluoro-N-(2-fluoro-3-(2-(6-((2-methoxyethyl)amino)pyridin-3-yl)-4-morpholinopyrido[3,2-d]pyrimidin-6-yl)phenyl)propane-1-sulfonamide], the IC50 at B-RAFV600E was 1 to 100 nM; against mTOR kinase, 100 to 1000 nM.
